{
  "source": "patent US20230226040A1",
  "about": "“COMBINATION THERAPY COMPRISING AN FGFR INHIBITOR AND A KRAS INHIBITOR” (Incyte Corporation, priority 2021, published 2023)",
  "key": {"[1]": {"tested_on": "MiaPaca2 KRAS G12C resistant clone 23", "test": "5-day Cell Titer Glo viability and Bliss score", "format": "cell-based", "conditions": "5-day CTG", "procedure": "For G12C resistant clone generation, MiaPaca2 parent cells were cultured with increasing concentrations of AMG510 (up to 1μM) over time. The viable cells were re-fed fresh media containing AMG510 weekly. Once the AMG510 resistant cells were growing at normal rates in the presence of 1μM AMG510, they were cloned by limiting dilution. Eight clones were selected for continued passage and further experiments."}, "MiaPaca2 cells": {"tested_on": "MiaPaca2 cells", "test": "5-day Cell Titer Glo viability and Bliss score", "method": "For synergy experiments, cells were seeded in RPMI medium with 10% HI FBS at a density of 500 cells/well in Greiner, white, clear bottom, 384-well tissue culture treated plates containing 10x10 combination matrices of compound. Plates were incubated at 37° C., 5% CO2 for 5 days. On day 5, Cell Titer Glo reagent was added to the plates and ATP luminescence was detected using a Pherastar FSX reader. The synergy score for the combination effect was calculated using a Bliss score model where the Bliss score=Yab−(Ya+Yb−(YaYb))×100, where Ya and Yb are the monotherapies. Bliss scores >20 are strongly synergistic and a higher Bliss scores indicates a higher level of synergism."}},
  "note": "“And” between values parts separate entries of the source, which are not always exact repeats. Equal values may be shown once.",
  "data": [
    {"compound": "CCN1C(=O)N(c2c(F)c(OC)cc(OC)c2F)Cc2cnc3[nH]c(CN4CCOCC4)cc3c21", "note": "[Pemigatinib, 3-(2,6-difluoro-3,5-dimethoxyphenyl)-1-ethyl-8-(morpholin-4-ylmethyl)-1,3,4,7-tetrahydro-2H-pyrrolo[3′,2′:5,6]pyrido[4,3-d]pyrimidin-2-one]", "values": [
      {"measurement": "% viability, Together", "setting": "[1]; G12C i 111 nM + Pemi 1 μM", "result": 74.9, "unit": "%"},
      {"measurement": "BLISS Score", "setting": "[1]; G12C i 111 nM + Pemi 1 μM", "result": 16.1},
      {"measurement": "% viability, Pemi 1 μM", "setting": "[1]; Pemi alone", "result": 100.1, "unit": "%"},
      {"measurement": "BLISS Score", "setting": "MiaPaca2 cells; MIA PaCa2, Pemi 12 nM + KRAS G12C i 0.15 nM, 5 day CTG", "result": "−16.39"},
      {"measurement": "BLISS Score", "setting": "MiaPaca2 cells; MIA PaCa2, Pemi 12 nM + KRAS G12C i 0.46 nM, 5 day CTG", "result": "−9.92"},
      {"measurement": "BLISS Score", "setting": "MiaPaca2 cells; MIA PaCa2, Pemi 12 nM + KRAS G12C i 1.37 nM, 5 day CTG", "result": "−4.50"},
      {"measurement": "BLISS Score", "setting": "MiaPaca2 cells; MIA PaCa2, Pemi 12 nM + KRAS G12C i 4.12 nM, 5 day CTG", "result": "−1.78"},
      {"measurement": "BLISS Score", "setting": "MiaPaca2 cells; MIA PaCa2, Pemi 12 nM + KRAS G12C i 12.35 nM, 5 day CTG", "result": "−1.91"},
      {"measurement": "BLISS Score", "setting": "MiaPaca2 cells; MIA PaCa2, Pemi 12 nM + KRAS G12C i 37.04 nM, 5 day CTG", "result": 1.33},
      {"measurement": "BLISS Score", "setting": "MiaPaca2 cells; MIA PaCa2, Pemi 12 nM + KRAS G12C i 111.11 nM, 5 day CTG", "result": 0.06},
      {"measurement": "BLISS Score", "setting": "MiaPaca2 cells; MIA PaCa2, Pemi 12 nM + KRAS G12C i 333.33 nM, 5 day CTG", "result": 0.73},
      {"measurement": "BLISS Score", "setting": "MiaPaca2 cells; MIA PaCa2, Pemi 12 nM + KRAS G12C i 1000.00 nM, 5 day CTG", "result": 0.29},
      {"measurement": "BLISS Score", "setting": "MiaPaca2 cells; MIA PaCa2, Pemi 37 nM + KRAS G12C i 0.15 nM, 5 day CTG", "result": "−13.53"},
      {"measurement": "BLISS Score", "setting": "MiaPaca2 cells; MIA PaCa2, Pemi 37 nM + KRAS G12C i 0.46 nM, 5 day CTG", "result": "−5.08"},
      {"measurement": "BLISS Score", "setting": "MiaPaca2 cells; MIA PaCa2, Pemi 37 nM + KRAS G12C i 1.37 nM, 5 day CTG", "result": 6.72},
      {"measurement": "BLISS Score", "setting": "MiaPaca2 cells; MIA PaCa2, Pemi 37 nM + KRAS G12C i 4.12 nM, 5 day CTG", "result": 4.25},
      {"measurement": "BLISS Score", "setting": "MiaPaca2 cells; MIA PaCa2, Pemi 37 nM + KRAS G12C i 12.35 nM, 5 day CTG", "result": 3.06},
      {"measurement": "BLISS Score", "setting": "MiaPaca2 cells; MIA PaCa2, Pemi 37 nM + KRAS G12C i 37.04 nM, 5 day CTG", "result": 5.01},
      {"measurement": "BLISS Score", "setting": "MiaPaca2 cells; MIA PaCa2, Pemi 37 nM + KRAS G12C i 111.11 nM, 5 day CTG", "result": 3.10},
      {"measurement": "BLISS Score", "setting": "MiaPaca2 cells; MIA PaCa2, Pemi 37 nM + KRAS G12C i 333.33 nM, 5 day CTG", "result": 2.88},
      {"measurement": "BLISS Score", "setting": "MiaPaca2 cells; MIA PaCa2, Pemi 37 nM + KRAS G12C i 1000.00 nM, 5 day CTG", "result": 2.69},
      {"measurement": "BLISS Score", "setting": "MiaPaca2 cells; MIA PaCa2, Pemi 111 nM + KRAS G12C i 0.15 nM, 5 day CTG", "result": "−10.62"},
      {"measurement": "BLISS Score", "setting": "MiaPaca2 cells; MIA PaCa2, Pemi 111 nM + KRAS G12C i 0.46 nM, 5 day CTG", "result": "−7.15"},
      {"measurement": "BLISS Score", "setting": "MiaPaca2 cells; MIA PaCa2, Pemi 111 nM + KRAS G12C i 1.37 nM, 5 day CTG", "result": 9.38},
      {"measurement": "BLISS Score", "setting": "MiaPaca2 cells; MIA PaCa2, Pemi 111 nM + KRAS G12C i 4.12 nM, 5 day CTG", "result": 4.70},
      {"measurement": "BLISS Score", "setting": "MiaPaca2 cells; MIA PaCa2, Pemi 111 nM + KRAS G12C i 12.35 nM, 5 day CTG", "result": 4.83},
      {"measurement": "BLISS Score", "setting": "MiaPaca2 cells; MIA PaCa2, Pemi 111 nM + KRAS G12C i 37.04 nM, 5 day CTG", "result": 6.56},
      {"measurement": "BLISS Score", "setting": "MiaPaca2 cells; MIA PaCa2, Pemi 111 nM + KRAS G12C i 111.11 nM, 5 day CTG", "result": 4.31},
      {"measurement": "BLISS Score", "setting": "MiaPaca2 cells; MIA PaCa2, Pemi 111 nM + KRAS G12C i 333.33 nM, 5 day CTG", "result": 3.66},
      {"measurement": "BLISS Score", "setting": "MiaPaca2 cells; MIA PaCa2, Pemi 111 nM + KRAS G12C i 1000.00 nM, 5 day CTG", "result": 4.56},
      {"measurement": "BLISS Score", "setting": "MiaPaca2 cells; MIA PaCa2, Pemi 333 nM + KRAS G12C i 0.15 nM, 5 day CTG", "result": "−12.96"},
      {"measurement": "BLISS Score", "setting": "MiaPaca2 cells; MIA PaCa2, Pemi 333 nM + KRAS G12C i 0.46 nM, 5 day CTG", "result": "−5.77"},
      {"measurement": "BLISS Score", "setting": "MiaPaca2 cells; MIA PaCa2, Pemi 333 nM + KRAS G12C i 1.37 nM, 5 day CTG", "result": 11.10},
      {"measurement": "BLISS Score", "setting": "MiaPaca2 cells; MIA PaCa2, Pemi 333 nM + KRAS G12C i 4.12 nM, 5 day CTG", "result": 7.47},
      {"measurement": "BLISS Score", "setting": "MiaPaca2 cells; MIA PaCa2, Pemi 333 nM + KRAS G12C i 12.35 nM, 5 day CTG", "result": 3.76},
      {"measurement": "BLISS Score", "setting": "MiaPaca2 cells; MIA PaCa2, Pemi 333 nM + KRAS G12C i 37.04 nM, 5 day CTG", "result": 6.27},
      {"measurement": "BLISS Score", "setting": "MiaPaca2 cells; MIA PaCa2, Pemi 333 nM + KRAS G12C i 111.11 nM, 5 day CTG", "result": 4.88},
      {"measurement": "BLISS Score", "setting": "MiaPaca2 cells; MIA PaCa2, Pemi 333 nM + KRAS G12C i 333.33 nM, 5 day CTG", "result": 3.97},
      {"measurement": "BLISS Score", "setting": "MiaPaca2 cells; MIA PaCa2, Pemi 333 nM + KRAS G12C i 1000.00 nM, 5 day CTG", "result": 2.38},
      {"measurement": "BLISS Score", "setting": "MiaPaca2 cells; MIA PaCa2, Pemi 1000 nM + KRAS G12C i 0.15 nM, 5 day CTG", "result": "−10.95"},
      {"measurement": "BLISS Score", "setting": "MiaPaca2 cells; MIA PaCa2, Pemi 1000 nM + KRAS G12C i 0.46 nM, 5 day CTG", "result": "−5.74"},
      {"measurement": "BLISS Score", "setting": "MiaPaca2 cells; MIA PaCa2, Pemi 1000 nM + KRAS G12C i 1.37 nM, 5 day CTG", "result": 3.46},
      {"measurement": "BLISS Score", "setting": "MiaPaca2 cells; MIA PaCa2, Pemi 1000 nM + KRAS G12C i 4.12 nM, 5 day CTG", "result": 6.59},
      {"measurement": "BLISS Score", "setting": "MiaPaca2 cells; MIA PaCa2, Pemi 1000 nM + KRAS G12C i 12.35 nM, 5 day CTG", "result": 2.84},
      {"measurement": "BLISS Score", "setting": "MiaPaca2 cells; MIA PaCa2, Pemi 1000 nM + KRAS G12C i 37.04 nM, 5 day CTG", "result": 4.32},
      {"measurement": "BLISS Score", "setting": "MiaPaca2 cells; MIA PaCa2, Pemi 1000 nM + KRAS G12C i 111.11 nM, 5 day CTG", "result": 4.62},
      {"measurement": "BLISS Score", "setting": "MiaPaca2 cells; MIA PaCa2, Pemi 1000 nM + KRAS G12C i 333.33 nM, 5 day CTG", "result": 3.71},
      {"measurement": "BLISS Score", "setting": "MiaPaca2 cells; MIA PaCa2, Pemi 1000 nM + KRAS G12C i 1000.00 nM, 5 day CTG", "result": 4.32},
      {"measurement": "BLISS Score", "setting": "MiaPaca2 cells; MIAPACA2, Average, G12C i 111 nM + Pemi 1 μM, 5-day CTG", "result": 6.3},
      {"measurement": "BLISS Score", "setting": "MiaPaca2 cells; MIAPACA2, G12C i 111 nM + Pemi 1 μM, 5-day CTG, single experiments", "result": "8.8 and 5.6 and 4.6"}
    ]}
  ]
}
